Data taken from US20180066005A1, “TRANS-RESVERATROL POLYSACCHARIDE, METHOD OF PRODUCING THE SAME, AND COMPOSITION COMPRISING THE SAME” (FAITH CO., LTD., priority 2013, published 2018).

How the values were obtained:
[1] = system: 3T3 mouse fibroblasts; assay: Rescue activity from cell death induced by hydrogen peroxide; assay type: cell-based; settings: 10 μM for 3 hours, then hydrogen peroxide 15 μM, culture for 12 hours (FIG. 10)
Method: Subsequently, the cultured cells were fixed with 4% paraformaldehyde and stained with Hoechst. Cells in which aggregation in the cell nucleus was observed were determined to be cell death, and the percentage of cell death (vertical axis in the graph) was calculated.
An experiment was conducted to confirm the trans-resveratrol polysaccharide's rescue activity from cell death. RSV, 4M-RSV, and 3P-RSV were each added to a culture medium of 3T3 mouse fibroblasts so that the final concentration was 10 μM, and the fibroblasts were cultured with 5% carbon dioxide at 37° C. for 3 hours. Subsequently, hydrogen peroxide was added to the culture medium so that the final concentration was 15 μM, thereby inducing cell death.
After culture for 12 hours, cell death was determined in the same manner as in Example 1, and the percentage of cell death was calculated.

[2] = system: normal human three-dimensional epithelial tissue model MelanoDerm; assay: Whitening effect: reduction in black areas in epithelial tissue models (MelanoDerm); assay type: cell-based
Method: An experiment was conducted to confirm the effect of suppressing the expression of NFκB, which is a transcription factor that induces inflammation. Epithelial tissue models were produced using a normal human three-dimensional epithelial tissue model production kit MelanoDerm (MEL-300; Kurabo). RSV was added to the culture media so that the final concentration was 0 μM (Ctrl), 30 μM, 50 μM, and 100 μM, and the tissue models were cultured according to the manual of the kit. RNA in the skin tissue models was collected three weeks after the addition of RSV, and subjected to quantitative PCR analysis to measure the expression level of NFκB. […] Epithelial tissue models were produced using the above kit. RSV was added to the culture media so that the final concentration was 0 μM (Ctrl), 30 μM, 50 μM, and 100 μM, and the tissue models were cultured according to the manual of the kit. Photographic images of the epithelial tissue models were taken three weeks after the addition of RSV. The degree of reduction in black areas due to the addition of RSV was calculated using ImageJ image-analysis software, and the results were graphed. […] Epithelial tissue models were produced in the same manner as in Example 5. RSV, 4 M-RSV, and 3P-RSV were each added so that the final concentration was 50 μM, and the skin tissue models were observed.

[3] = system: NFκB; assay: Suppression of NFκB expression in epithelial tissue models (quantitative PCR); assay type: cell-based, human; settings: 30 μM, 50 μM and 100 μM, three weeks after addition (FIG. 11)
Method: An experiment was conducted to confirm the effect of suppressing the expression of NFκB, which is a transcription factor that induces inflammation. Epithelial tissue models were produced using a normal human three-dimensional epithelial tissue model production kit MelanoDerm (MEL-300; Kurabo). RSV was added to the culture media so that the final concentration was 0 μM (Ctrl), 30 μM, 50 μM, and 100 μM, and the tissue models were cultured according to the manual of the kit. RNA in the skin tissue models was collected three weeks after the addition of RSV, and subjected to quantitative PCR analysis to measure the expression level of NFκB.

[4] = Solubility in water at room temperature; assay type: physicochemical; settings: for solubility in distilled water: allowed to stand at room temperature, turbid or transparent tube (FIG. 7)
Method: FIG. 7 is a photographic image showing trans-resveratrol-3-O-β-D-monoglucoside contained in the fraction showing a single peak detected in FIG. 1 (A), and trans-resveratrol-3-O-β-D-diglucoside contained in the fraction (a) in FIG. 1 (B), after they were dissolved in distilled water and allowed to stand at room temperature.

**Q.** What does the source list for `OCC1OC(Oc2cc(O)cc(/C=C/c3ccc(OC4OC(CO)C(OC5OC(CO)C(O)C(O)C5O)C(O)C4O)cc3)c2)C(O)C(O)C1O` [4M-RSV, trans-resveratrol-O-β-D-3-monoglucoside-4′-diglycoside]?
**A.** rescue activity from cell death induced by hydrogen peroxide (percentage of cell death) [1]: cell death almost equal to that of the case in which hydrogen peroxide was not added (Ctrl); degree of reduction in black areas per molecular unit of RSV (whitening effect) ([2]; 50 μM (FIG. 13)): significantly excellent whitening effect

**Q.** With `Oc1ccc(/C=C/c2cc(O)cc(O)c2)cc1` [RSV, Trans-resveratrol] as the compound, how does the “reduction in black areas (whitening effect)” value ([2]; 30 μM, 50 μM and 100 μM, three weeks after addition, ImageJ (FIG. 12)) read?
**A.** The value was “reduced black areas in the epithelial tissue models in a concentration-dependent manner”.

**Q.** What about the “expression level of NFκB” value [3] of the same compound?
**A.** The value was “suppressed the expression level of NFκB in the epithelial tissue models in a concentration-dependent manner”.

**Q.** Which “solubility in distilled water” value [4] does the source give for `OCC1OC(OC2C(CO)OC(Oc3cc(O)cc(/C=C/c4ccc(O)cc4)c3)C(O)C2O)C(O)C(O)C1O` [trans-resveratrol-3-O-β-D-diglucoside, trans-Resveratrol-3-O-β-D-diglucoside] here?
**A.** The value was “easily dissolved in distilled water at room temperature”.

**Q.** What about the “water solubility at ordinary temperature” value ([4]; ordinary temperature, concluded from ethyl acetate/water partition and HPLC fractions) of the same compound?
**A.** The value was “could acquire water solubility at ordinary temperature”.

**Q.** With `OC[C@H]1O[C@@H](Oc2cc(O)cc(/C=C/c3ccc(O)cc3)c2)[C@H](O)[C@@H](O)[C@@H]1O` [trans-resveratrol-3-O-β-D-monoglucoside, trans-Resveratrol-3-O-β-D-glucopyranoside, reference compound] as the compound, how does the “solubility in distilled water” value [4] read?
**A.** Its value is “not dissolved in distilled water at room temperature”.
